From patent publication US7314861B2, “Melanin-concentrating hormone analogs” (priority 2001, dated 2008)
Where a SMILES comes first, the peptide text is derived from it. Bridges are numbered along the chain shown (N, C = ends). [ ]: non-standard residue; d: D form. Arg(NO2) = N=C(NCCC[C@H](N)C(=O)O)N[N+](=O)[O-]; hArg = N=C(N)NCCCC[C@H](N)C(=O)O

What was measured:
human MCH-1R [1] = target: T1, human MCH-1R (Homo sapiens, UniProt Q99705); assay: Radiolabeled MCH-R binding assay (SPA based), MCH-1R
Description: (§1) Cell membranes were prepared on ice. Each T-75 flask was rinsed twice with 10 ml of Enzyme-free Cell Dissociation Buffer (Specialty Media, Lavallette, N.J.), and the cell monolayer was detached in an additional 10 ml of Enzyme-free Cell Dissociation Buffer by incubation at room temperature for 10 minutes. Dissociated cells were centrifuged (500×g for 10 minutes at 4° C.), resuspended in 5 ml homogenization buffer (10 mM Tris-HCl, pH 7.4, 0.01 mM Pefabloc, 10 μM phosphoramidon, 40 μg/ml bacitracin) and then homogenized using a glass homogenizer (10-15 strokes). The homogenate was centrifuged for 10 minutes (1,000×g at 4° C.). The resulting supernatant was then centrifuged at 38,700×g for 15 minutes at 4° C. Pelleted membranes were resuspended (passed through 25 gauge needle 5 times), snap-frozen on liquid nitrogen, and stored at −80° C. until use.
(§2) For the SPA-based assay, WGA-PVT beads (NEN Life Sciences Products) were resuspended in Dulbecco's PBS with calcium and magnesium (500 mg beads in 4 ml PBS). […] The suspension was mixed gently for 20 minutes, 12.3 ml of assay buffer and protease inhibitors were added (final concentration given): 2 μg/ml leupeptin, 10 μM phosphoramidon, 40 μg/ml bacitracin, 5 μg/ml aprotinin, 0.1 mM Pefabloc.
(§3) Coated beads were kept on ice until use. […] Binding reactions were allowed to proceed at room temperature for 3 hours. Quantitation was performed by scintillation counting (TopCount device).

human MCH-R2 = human MCH-R2 (Homo sapiens, UniProt Q969V1); assay: Aequorin bioluminescence functional assay, MCH-2R; conditions: for EC50: MCH-2R EC50 (nM); for EC50 / MCH-2R Activation %: aequorin functional assay; for MCH-2R Activation %: % Activation at 10 μM; for selective activity at MCH-2R over MCH-1R: greater binding and/or activation at MCH-2R than at MCH-1R
Description: The aequorin bioluminescence assay can be used to measure the activity of G protein-coupled receptors that couple through the Gα protein subunit family consisting of Gq and G11. Such coupling leads to phospholipase C activation, intracellular calcium mobilization and protein kinase C activation.
Following approximately 40 hours of expression the apo-aequorin in the cells was charged for 4 hours with coelenterazine (10 μM) under reducing conditions (300 μM reduced glutathione) in ECB buffer (140 mM NaCl, 20 mM KCl, 20 mM HEPES-NaOH [pH=7.4], 5 mM glucose, 1 mM MgCl2, 1 mM CaCl2, 0.1 mg/ml bovine serum albumin).
The cells were harvested, washed once in ECB medium and resuspended to 500,000 cells/ml. 100 μl of cell suspension (corresponding to 5×10^4 cells) was then injected into the test plate containing MCH or MCH analogs, and the integrated light emission was recorded over 30 seconds, in 0.5 second units. 20 μL of lysis buffer (0.1% final Triton X-100 concentration) was then injected and the integrated light emission recorded over 10 seconds, in 0.5 second units. The “fractional response” values for each well were calculated by taking the ratio of the integrated response to the initial challenge to the total integrated luminescence including the Triton X-100 lysis response.

human MCH-1R [2] = target: T1, human MCH-1R; assay: Aequorin bioluminescence functional assay, MCH-1R; conditions: for MCH-1R Activation %: % Activation at 10 μM, aequorin functional assay
human MCH-2R = human MCH-2R (Homo sapiens, UniProt Q969V1); assay: Radiolabeled MCH-R binding assay (SPA based), MCH-2R; conditions: MCH-2R IC50 (nM)
Description: as §1, §2, §3

[3] = Table 1, inhibition of [125I]-human MCH (Phe13, Tyr19) binding

Chain of human MCH-R2 (Q969V1 whole entry): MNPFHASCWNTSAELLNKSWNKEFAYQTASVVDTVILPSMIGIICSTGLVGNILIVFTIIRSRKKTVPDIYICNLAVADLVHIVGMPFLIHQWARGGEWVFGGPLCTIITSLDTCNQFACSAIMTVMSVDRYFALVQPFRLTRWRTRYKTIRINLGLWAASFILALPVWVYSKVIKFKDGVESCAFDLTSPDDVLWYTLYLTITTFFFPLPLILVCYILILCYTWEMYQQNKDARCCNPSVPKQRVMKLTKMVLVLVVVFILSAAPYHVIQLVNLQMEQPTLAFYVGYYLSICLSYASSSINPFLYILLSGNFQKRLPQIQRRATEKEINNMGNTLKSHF
Chain of human MCH-2R (Q969V1 whole entry): as above
T1 sequence (Q99705 whole entry): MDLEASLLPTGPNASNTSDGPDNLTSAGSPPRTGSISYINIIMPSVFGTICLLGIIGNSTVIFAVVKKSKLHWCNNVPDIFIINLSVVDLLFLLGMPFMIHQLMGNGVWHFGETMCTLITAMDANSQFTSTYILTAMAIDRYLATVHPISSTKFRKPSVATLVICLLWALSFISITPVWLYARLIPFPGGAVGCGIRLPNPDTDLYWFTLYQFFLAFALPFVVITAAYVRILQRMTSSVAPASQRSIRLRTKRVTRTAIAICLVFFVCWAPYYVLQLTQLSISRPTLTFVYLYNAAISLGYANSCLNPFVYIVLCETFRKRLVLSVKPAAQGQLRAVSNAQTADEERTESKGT

Structure (SMILES) | IC50 (human MCH-1R [1]) [nM] | MCH-2R Activation % (human MCH-R2; Table 1) [%] | MCH-1R Activation % (human MCH-1R [2]; Table 1) [%] | MCH-2R Activation % (human MCH-R2; Table 3) [%] | MCH-1R Activation % (human MCH-1R [2]; Table 3) [%] | also measured
CC(=O)N[C@@H](CCCNC(=N)N)C(=O)N[C@H]1CSSC[C@@H](C(N)=O)NC(=O)[C@@H]2CCCN2C(=O)[C@H](CCCNC(=N)N)NC(=O)[C@H](Cc2ccc(O)cc2)NC(=O)[C@H](C(C)C)NC(=O)[C@H](CCCNC(=N)N)NC(=O)CNC(=O)[C@H](CC(C)C)NC(=O)[C@H](C)NC1=O [compound 4] (Ac-RCALGRVYRPC-NH2; disulfide 2-11) | 15 | 104 | 42 |  |  | EC50 (human MCH-R2; Table 1, 293-AEQ17 cells): 12 nM; selective activity at MCH-2R over MCH-1R (human MCH-R2): selectively active
CSCC[C@@H]1NC(=O)[C@@H](NC(=O)[C@H](CCCNC(=N)N)NC(C)=O)CSSC[C@@H](C(N)=O)NC(=O)[C@@H]2CCCN2C(=O)[C@H](CCCNC(=N)N)NC(=O)[C@H](Cc2ccc(O)cc2)NC(=O)[C@H](C(C)C)NC(=O)[C@H](CCCNC(=N)N)NC(=O)[C@@H](CO)NC(=O)[C@H](CC(C)C)NC1=O [compound 19] | 31 | 113 | 47 |  |  | selective activity at MCH-2R over MCH-1R (human MCH-R2): selectively active
CSCC[C@@H]1NC(=O)[C@@H](NC(=O)[C@H](CCCNC(=N)N)NC(C)=O)CSSC[C@@H](C(N)=O)NC(=O)[C@@H]2CCCN2C(=O)[C@H](CCCNC(=N)N)NC(=O)[C@H](Cc2ccc(O)cc2)NC(=O)[C@H](C(C)C)NC(=O)[C@H](C)NC(=O)CNC(=O)[C@H](CC(C)C)NC1=O [compound 23] (Ac-RCMLGAVYRPC-NH2; disulfide 2-11) | > 1000 | 36 |  |  |  | EC50 (human MCH-R2; Table 1, 293-AEQ17 cells): > 1000 nM; selective activity at MCH-2R over MCH-1R (human MCH-R2): selectively active; EC50 (human MCH-1R [2]): > 10000 nM
CSCC[C@@H]1NC(=O)[C@@H](NC(=O)[C@H](CCCNC(=N)N)NC(C)=O)CSSC[C@@H](C(N)=O)NC(=O)[C@@H]2CCCN2C(=O)[C@H](CCCNC(=N)N)NC(=O)[C@H](Cc2ccccc2)NC(=O)[C@H](C(C)C)NC(=O)[C@H](CCCNC(=N)N)NC(=O)CNC(=O)[C@H](CC(C)C)NC1=O [compound 27] |  | 94 | 96 |  |  | EC50 (human MCH-R2; Table 1, 293-AEQ17 cells): 12 nM; IC50 (human MCH-2R; [3]): 1.5 nM
CSCC[C@@H]1NC(=O)[C@@H](NC(=O)[C@H](CCCNC(=N)N)NC(C)=O)CSSC[C@@H](C(N)=O)NC(=O)[C@@H]2CCCN2C(=O)[C@H](CCCNC(=N)N)NC(=O)[C@H](Cc2ccc(O)cc2)NC(=O)[C@H](C(C)C)NC(=O)[C@H](CCCCNC(=N)N)NC(=O)[C@@H](C)NC(=O)[C@H](CC(C)C)NC1=O [compound 36] (Ac-RCML[dA][hArg]VYRPC-NH2; disulfide 2-11) |  | 74 | 0.1 |  |  | EC50 (human MCH-R2; Table 1, 293-AEQ17 cells): 19 nM; selective activity at MCH-2R over MCH-1R (human MCH-R2): selectively active; EC50 (human MCH-1R [2]): > 10000 nM; IC50 (human MCH-2R; [3]): 0.9 nM
CSCC[C@@H]1NC(=O)[C@@H](NC(=O)[C@H](CCCNC(=N)N)NC(C)=O)CSSC[C@@H](C(N)=O)NC(=O)[C@@H]2CCCN2C(=O)[C@H](CCCNC(=N)N)NC(=O)[C@H](Cc2ccc(O)cc2)NC(=O)[C@H](C(C)C)NC(=O)[C@H](CCCNC(=N)N[N+](=O)[O-])NC(=O)[C@@H](C)NC(=O)[C@H](CC(C)C)NC1=O [compound 37] (Ac-RCML[dA][Arg(NO2)]VYRPC-NH2; disulfide 2-11) | > 1000 | 34 | 0.1 |  |  | EC50 (human MCH-1R [2]): > 10000 nM
CSCC[C@@H]1NC(=O)[C@@H](NC(=O)[C@@H](N)CCCNC(=N)N)CSSC[C@@H](C(N)=O)NC(=O)[C@@H]2CCCN2C(=O)[C@H](CCCNC(=N)N)NC(=O)[C@H](Cc2ccc(O)cc2)NC(=O)[C@H](C(C)C)NC(=O)[C@H](CCCNC(=N)N)NC(=O)CNC(=O)[C@H](CC(C)C)NC1=O [compound 39] | 0.13 |  |  |  |  | EC50 (human MCH-R2; Table 2): 11.6 nM; MCH-2R Activation % (human MCH-R2; Table 2): 109%; EC50 (human MCH-1R [2]): 14 nM; MCH-1R Activation % (human MCH-1R [2]; Table 2): 106%; IC50 (human MCH-2R; Table 2): 11 nM
CSCC[C@H](NC(=O)[C@H](C)NC(=O)[C@H](Cc1ccccc1)NC(=O)[C@@H](N)CC(=O)O)C(=O)N[C@@H](CC(C)C)C(=O)N[C@@H](CCCNC(=N)N)C(=O)N[C@H]1CSSC[C@@H](C(=O)N[C@@H](Cc2c[nH]c3ccccc23)C(=O)N[C@@H](CCC(N)=O)C(=O)N[C@H](C(=O)O)C(C)C)NC(=O)[C@@H]2CCCN2C(=O)[C@H](CCCNC(=N)N)NC(=O)[C@H](Cc2ccc(O)cc2)NC(=O)[C@H](C(C)C)NC(=O)[C@H](CCCNC(=N)N)NC(=O)CNC(=O)[C@H](CC(C)C)NC(=O)[C@H](CCSC)NC1=O [compound 43] (H-DFAMLRCMLGRVYRPCWQV-OH; disulfide 7-16; N-terminus and C-terminus assumed) | 0.5 |  |  | 95 | 97 | 
CSCC[C@@H]1NC(=O)[C@@H](NC(=O)[C@H](CCCNC(=N)N)NC(=O)[C@H](CC(C)C)NC(=O)[C@H](C)NC(=O)[C@H](CC(=O)O)NC(=O)[C@H](Cc2ccccc2)NC(=O)[C@@H](N)CC(=O)O)CSSC[C@@H](C(=O)N[C@@H](Cc2c[nH]c3ccccc23)C(=O)N[C@@H](CCC(N)=O)C(=O)N[C@H](C(=O)O)C(C)C)NC(=O)[C@@H]2CCCN2C(=O)[C@H](CCCNC(=N)N)NC(=O)[C@H](Cc2ccc(O)cc2)NC(=O)[C@H](C(C)C)NC(=O)[C@H](CCCNC(=N)N)NC(=O)CNC(=O)[C@H](CC(C)C)NC1=O [compound 44] (H-DFDALRCMLGRVYRPCWQV-OH; disulfide 7-16; N-terminus and C-terminus assumed) | 0.5 |  |  | 100 | 97 | 
CSCC[C@H](NC(=O)[C@H](CC(=O)O)NC(=O)[C@H](Cc1ccccc1)NC(=O)[C@@H](N)CC(=O)O)C(=O)N[C@@H](CC(C)C)C(=O)N[C@@H](CCCNC(=N)N)C(=O)N[C@H]1CSSC[C@@H](C(=O)N[C@@H](Cc2c[nH]c3ccccc23)C(=O)N[C@@H](CCC(N)=O)C(=O)N[C@H](C(=O)O)C(C)C)NC(=O)[C@@H]2CCCN2C(=O)[C@H](CCCNC(=N)N)NC(=O)[C@H](Cc2ccc(O)cc2)NC(=O)[C@H](C(C)C)NC(=O)[C@H](CCCNC(=N)N)NC(=O)CNC(=O)[C@H](CC(C)C)NC(=O)[C@H](C)NC1=O [compound 47] (H-DFDMLRCALGRVYRPCWQV-OH; disulfide 7-16; N-terminus and C-terminus assumed) |  |  |  | 94 | 56 | IC50 (human MCH-2R; Table 3): 40 nM
CSCC[C@@H]1NC(=O)[C@@H](NC(=O)[C@H](CCCNC(=N)N)NC(=O)[C@H](CC(C)C)NC(=O)[C@H](CCSC)NC(=O)[C@H](CC(=O)O)NC(=O)[C@H](Cc2ccccc2)NC(=O)[C@@H](N)CC(=O)O)CSSC[C@@H](C(=O)N[C@@H](Cc2c[nH]c3ccccc23)C(=O)N[C@@H](CCC(N)=O)C(=O)N[C@H](C(=O)O)C(C)C)NC(=O)[C@@H]2CCCN2C(=O)[C@H](C)NC(=O)[C@H](Cc2ccc(O)cc2)NC(=O)[C@H](C(C)C)NC(=O)[C@H](CCCNC(=N)N)NC(=O)CNC(=O)[C@H](CC(C)C)NC1=O [compound 52] (H-DFDMLRCMLGRVYAPCWQV-OH; disulfide 7-16; N-terminus and C-terminus assumed) | 1.4 |  |  | 81 | 97 | EC50 (human MCH-R2; Table 3): 187 nM
CSCC[C@@H]1NC(=O)[C@@H](NC(=O)[C@H](CCCNC(=N)N)NC(=O)[C@H](CC(C)C)NC(=O)[C@H](CCSC)NC(=O)[C@H](CC(=O)O)NC(=O)[C@H](Cc2ccccc2)NC(=O)[C@@H](N)CC(=O)O)CSSC[C@@H](C(=O)N[C@@H](Cc2c[nH]c3ccccc23)C(=O)N[C@@H](CCC(N)=O)C(=O)N[C@H](C(=O)O)C(C)C)NC(=O)[C@H](C)NC(=O)[C@H](CCCNC(=N)N)NC(=O)[C@H](Cc2ccc(O)cc2)NC(=O)[C@H](C(C)C)NC(=O)[C@H](CCCNC(=N)N)NC(=O)CNC(=O)[C@H](CC(C)C)NC1=O [compound 53] (H-DFDMLRCMLGRVYRACWQV-OH; disulfide 7-16; N-terminus and C-terminus assumed) |  |  |  | 96 | 99 | IC50 (human MCH-2R; Table 3): 19 nM
CSCC[C@@H]1NC(=O)[C@@H](NC(=O)[C@H](CCCNC(=N)N)NC(=O)[C@H](CC(C)C)NC(=O)[C@H](CCSC)NC(=O)[C@H](CC(=O)O)NC(=O)[C@H](Cc2ccccc2)NC(=O)[C@@H](N)CC(=O)O)CSSC[C@@H](C(=O)N[C@@H](Cc2c[nH]c3ccccc23)C(=O)N[C@@H](C)C(=O)N[C@H](C(=O)O)C(C)C)NC(=O)[C@@H]2CCCN2C(=O)[C@H](CCCNC(=N)N)NC(=O)[C@H](Cc2ccc(O)cc2)NC(=O)[C@H](C(C)C)NC(=O)[C@H](CCCNC(=N)N)NC(=O)CNC(=O)[C@H](CC(C)C)NC1=O [compound 55] (H-DFDMLRCMLGRVYRPCWAV-OH; disulfide 7-16; N-terminus and C-terminus assumed) |  |  |  | 97 | 99 | IC50 (human MCH-2R; Table 3): 9.5 nM
CSCC[C@@H]1NC(=O)[C@@H](NC(=O)[C@H](CCCNC(=N)N)NC(=O)[C@H](CC(C)C)NC(=O)[C@H](CCSC)NC(=O)[C@H](CC(=O)O)NC(=O)[C@H](Cc2ccccc2)NC(=O)[C@@H](N)CC(=O)O)CSSC[C@@H](C(=O)N[C@@H](Cc2ccc(O)cc2)C(=O)N[C@@H](CCC(N)=O)C(=O)N[C@H](C(=O)O)C(C)C)NC(=O)[C@@H]2CCCN2C(=O)[C@H](CCCNC(=N)N)NC(=O)[C@H](Cc2ccccc2)NC(=O)[C@H](C(C)C)NC(=O)[C@H](CCCNC(=N)N)NC(=O)CNC(=O)[C@H](CC(C)C)NC1=O [compound 57] (H-DFDMLRCMLGRVFRPCYQV-OH; disulfide 7-16; N-terminus and C-terminus assumed) | 0.6 |  |  | 92 | 97 | EC50 (human MCH-R2; Table 3): 1.5 nM
